Source: patent publication US20240252456A1, “ORAL COMPOSITION, SKIN COSMETIC AND HAIR COSMETIC” (MARUZEN PHARMACEUTICALS CO., LTD., priority 2021, published 2024)

Tests used:
tyrosinase = assay: Tyrosinase activity inhibitory action test; type: biochemical
Protocol: In a 48-well plate, 0.2 mL of McIlvaine buffer solution (pH 6.8), 0.06 mL of 0.3 mg/mL tyrosine solution, and 0.18 mL of the test sample (Sample 3, see Table 4 below for final concentration) dissolved in 25% DMSO solution were added, and they were statically placed at 37° C. for 10 minutes. To this, 0.02 mL of 1000 units/mL tyrosinase solution was added, followed by reaction at 37° C. for 15 minutes. After the reaction was completed, the absorbance at a wavelength of 475 nm was measured. As a blank, the same operation and absorbance measurement were performed in the case in which no enzyme solution was added. Furthermore, as a control, the same measurement was performed in the case in which 25% DMSO solution was added without adding the sample solution. From the obtained measurement results, the tyrosinase activity inhibition rate (%) was calculated using the following equation. [formula] Terms in the equation represent the following respective ones. • A: Absorbance at wavelength 475 nm with test sample addition and enzyme addition • B: Absorbance at wavelength 475 nm with test sample addition and without enzyme addition • C: Absorbance at wavelength 475 nm without sample addition and with enzyme addition • D: Absorbance at wavelength 475 nm without sample addition and without enzyme addition

[1] = tested on: cyclic AMP phosphodiesterase; assay: Cyclic AMP phosphodiesterase activity inhibitory action test; type: biochemical
Protocol: To 0.2 mL of 50 mmol/L Tris-HCl buffer solution (pH 7.5) containing 5 mmol/L magnesium chloride, 0.1 mL of 2.5 mg/mL bovine serum albumin solution, 0.1 mL of 0.1 mg/mL cyclic AMP phosphodiesterase solution, and 0.05 mL of the test sample solution (Sample 1, see Table 2 below for final concentration) were added, and the mixture was statically placed at 37° C. for 5 minutes. Then, 0.05 mL of 0.5 mg/mL cyclic AMP solution was added, and the mixture was reacted at 37° C. for 60 minutes. After the reaction was completed, the reaction was stopped by boiling in a boiling water bath for 3 minutes, and then centrifugal separation was applied (2260×g, 10 minutes, 4° C.). Cyclic AMP, a reaction substrate in the supernatant, was analyzed under the following high-performance liquid chromatography conditions. In addition, as a control, the same operation was performed by adding only the solvent to which no sample was added.
• Product name: Chromatocorder 12 (available from SYSTEM INSTRUMENTS) • Stationary phase: Wakosil C18-ODS 5 μm (available from FUJIFILM Wako Pure Chemical Corporation) • Column length: 250 mm • Mobile phase: 1 mmol/L TBAP in 25 mmol/L KH2PO4: CH3CN=90:10 • Mobile phase flow rate: 1.0 mL/min • Detection: 260 nm
Then, a peak area (A) of a cyclic AMP standard product, a peak area (B1) of the supernatant reaction solution of the cyclic AMP standard product and the cyclic AMP phosphodiesterase when no sample was added, and a peak area (B2) of the supernatant reaction solution of the cyclic AMP standard product and the cyclic AMP phosphodiesterase when the test sample was added were obtained. From the obtained results, a decomposition rate (C) of the cyclic AMP standard product when no sample was added and a decomposition rate (D) of the cyclic AMP standard product when the test sample was added were calculated using the following equations.
After that, the cyclic AMP phosphodiesterase activity inhibition rate (%) was calculated from the following equation based on each decomposition rate (C, D) calculated from the above equations.

[2] = tested on: Normal human dermal fibroblasts (NB1RGB); assay: Type I collagen production promotive action test; type: cell-based; details: 3 days, A/B×100 vs no sample
Protocol: Normal human dermal fibroblasts (NB1RGB) were cultured using Dulbecco's modified Eagle's medium (DMEM) containing 10% FBS, and then the cells were collected by a trypsin treatment. The collected cells were diluted with DMEM containing 0.25% FBS to a cell density of 1.6×10^5 cells/mL, then seeded with 100 μL per well in a 96-well microplate, and cultured overnight.
After the culturing was completed, 100 μL of the test sample (Sample 1, see Table 6 below for final concentration) dissolved in DMEM containing 0.25% FBS was added to each well, and culturing was performed for 3 days. As a control, culturing was performed in the same manner using DMEM containing 0.25% FBS to which no sample was added. After culturing, the amount of type I collagen in the medium of each well was measured by ELISA method. From the measurement results, the type I collagen production promotion rate (%) was calculated using the following equation.
Type I collagen production promotion rate (%)=A/B×100
Terms in the equation represent the following respective ones. • A: Type I collagen amount with test sample addition • B: Type I collagen amount without sample addition

Row | Structure (SMILES) | Tyrosinase activity inhibition rate (tyrosinase; 125 μmol/L) [%] | Tyrosinase activity inhibition rate (tyrosinase; 250 μmol/L) [%] | Tyrosinase activity inhibition rate (tyrosinase; 500 μmol/L) [%] | Tyrosinase activity inhibition rate (tyrosinase; 1000 μmol/L) [%] | cAMP phosphodiesterase activity inhibition rate ([1]; 500 μmol/L) [%] | cAMP phosphodiesterase activity inhibition rate ([1]; 1000 μmol/L) [%] | cAMP phosphodiesterase activity inhibition rate ([1]; 2000 μmol/L) [%] | Type I collagen production promotion rate ([2]; 15.6 μmol/L) [%] | Type I collagen production promotion rate ([2]; 62.5 μmol/L) [%]
1 | O=C(O)CCc1ccccc1 [Sample 3, 3-phenylpropionic acid] | 4.4 | 9.6 | 15.2 | 22.8 |  |  |  |  | 
2 | O=C(O)CCc1ccc(O)c(O)c1 [Sample 1, 3,4-Dihydroxyhydrocinnamic acid] |  |  |  |  | 42.0 | 46.8 | 55.3 | 107.4 | 112.8
